Reference: PubChem BioAssay (NCI)
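Protocol summary: plate cells (96-well), add compound at 5 concentrations, incubate 48 h, interpolate endpoints linearly. TGI: total growth inhibition.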

How the values were obtained:
Assay in all cases: NCI tumour cell line growth inhibition, 48 h
786-0 renal = tested on: 786-0 renal
A498 renal = tested on: A498 renal
A549 NSCLC = tested on: A549 NSCLC
ACHN renal = tested on: ACHN renal
BT-549 breast = tested on: BT-549 breast
CAKI-1 renal = tested on: CAKI-1 renal
CCRF-CEM leukemia = tested on: CCRF-CEM leukemia
COLO 205 colon = tested on: COLO 205 colon
DU-145 prostate = tested on: DU-145 prostate
EKVX NSCLC = tested on: EKVX NSCLC
HCC-2998 colon = tested on: HCC-2998 colon
HCT-116 colon = tested on: HCT-116 colon
HCT-15 colon = tested on: HCT-15 colon
HL-60(TB) leukemia = tested on: HL-60(TB) leukemia
HOP-62 NSCLC = tested on: HOP-62 NSCLC
HOP-92 NSCLC = tested on: HOP-92 NSCLC
HT29 colon = tested on: HT29 colon
K-562 leukemia = tested on: K-562 leukemia
KM12 colon = tested on: KM12 colon
LOX IMVI melanoma = tested on: LOX IMVI melanoma
M14 melanoma = tested on: M14 melanoma
MALME-3M melanoma = tested on: MALME-3M melanoma
MCF7 breast = tested on: MCF7 breast
MDA-MB-231 breast = tested on: MDA-MB-231 breast
MDA-MB-435 = tested on: MDA-MB-435
MDA-N = tested on: MDA-N
MOLT-4 leukemia = tested on: MOLT-4 leukemia
NCI-H226 lung = tested on: NCI-H226 lung
NCI-H23 lung = tested on: NCI-H23 lung
NCI-H460 lung = tested on: NCI-H460 lung
NCI-H522 lung = tested on: NCI-H522 lung
NCI/ADR-RES ovarian = tested on: NCI/ADR-RES ovarian
OVCAR-3 ovarian = tested on: OVCAR-3 ovarian
OVCAR-4 ovarian = tested on: OVCAR-4 ovarian
OVCAR-5 ovarian = tested on: OVCAR-5 ovarian
OVCAR-8 ovarian = tested on: OVCAR-8 ovarian
PC-3 prostate = tested on: PC-3 prostate
RXF 393 renal = tested on: RXF 393 renal
SF-268 CNS = tested on: SF-268 CNS
SF-295 CNS = tested on: SF-295 CNS
SF-539 CNS = tested on: SF-539 CNS
SK-MEL-2 melanoma = tested on: SK-MEL-2 melanoma
SK-MEL-28 melanoma = tested on: SK-MEL-28 melanoma
SK-MEL-5 melanoma = tested on: SK-MEL-5 melanoma
SK-OV-3 ovarian = tested on: SK-OV-3 ovarian
SN12C renal = tested on: SN12C renal
SNB-19 CNS = tested on: SNB-19 CNS
SNB-75 CNS = tested on: SNB-75 CNS
SR leukemia = tested on: SR leukemia
SW-620 colon = tested on: SW-620 colon
T-47D breast = tested on: T-47D breast
TK-10 renal = tested on: TK-10 renal
U251 CNS = tested on: U251 CNS
UACC-257 melanoma = tested on: UACC-257 melanoma
UACC-62 melanoma = tested on: UACC-62 melanoma
UO-31 renal = tested on: UO-31 renal
HS 578T breast = tested on: HS 578T breast
IGROV1 ovarian = tested on: IGROV1 ovarian
RPMI-8226 leukemia = tested on: RPMI-8226 leukemia

Measured: TGI

O=C(N(C1=CCCC1)N(c1ccccc1)c1ccccc1)C(F)(F)F
63.5 µM: HCT-116 colon
69.4 µM: HOP-62 NSCLC
91.8 µM: CCRF-CEM leukemia
96.5 µM: 786-0 renal
81.5 µM: DU-145 prostate
50.4 µM: MDA-MB-435
76.2 µM: MOLT-4 leukemia
94.8 µM: BT-549 breast
68.7 µM: K-562 leukemia
42.6 µM: HT29 colon
51.8 µM: HCT-15 colon
77 µM: SF-295 CNS
25.3 µM: NCI-H522 lung
75.6 µM: UO-31 renal
35 µM: SK-MEL-2 melanoma
98.4 µM: A549 NSCLC
42.3 µM: NCI-H226 lung
33.8 µM: HCC-2998 colon
35.6 µM: SK-MEL-5 melanoma
80.4 µM: CAKI-1 renal
45.9 µM: SF-539 CNS
48.7 µM: SF-268 CNS
14.4 µM: MALME-3M melanoma
40.6 µM: COLO 205 colon
44.6 µM: MCF7 breast
39.1 µM: EKVX NSCLC
74.5 µM: M14 melanoma
90.4 µM: SR leukemia
66.8 µM: SW-620 colon
78.7 µM: SN12C renal
31.5 µM: LOX IMVI melanoma
87.9 µM: NCI/ADR-RES ovarian
46.8 µM: HL-60(TB) leukemia
35.7 µM: NCI-H460 lung
42.2 µM: U251 CNS
65.8 µM: MDA-N | T-47D breast
44.4 µM: OVCAR-3 ovarian
58.9 µM: UACC-257 melanoma
33.9 µM: HOP-92 NSCLC
38.8 µM: ACHN renal | RXF 393 renal
34.3 µM: MDA-MB-231 breast
43.9 µM: KM12 colon
not listed: HS 578T breast | IGROV1 ovarian | RPMI-8226 leukemia
> 100 µM: all other assays above

C=C1CC2C[C@H](OS(=O)(=O)c3ccc(C)cc3)C(C1)N2C (some centres not stated)
not listed: A498 renal | ACHN renal | HOP-92 NSCLC | OVCAR-5 ovarian
> 100 µM: all other assays above

CC(C)c1cc(C(C)C)c(B(c2ccccc2)c2ccccc2)c(C(C)C)c1Br
not listed: SNB-75 CNS | RPMI-8226 leukemia
> 100 µM: all other assays above

C(=N\Nc1nnc(-c2nnc(N/N=C/c3ccccc3)o2)o1)/c1ccccc1
not listed: LOX IMVI melanoma | NCI-H522 lung | SK-MEL-2 melanoma | SK-OV-3 ovarian | SNB-75 CNS
> 10 µM: all other assays above
